What follows are molecules tested on HCV 1b-Con-1 replicon (assay: HCV 1b-Con-1 replicon assay (luciferase reporter gene, HuH-7 cells)). Conditions: Hepatitis C virus, Huh-7, luciferase reporter gene activity in the replicon, in the presence of 5% FBS.
Format: cell-based, Hepatitis C virus (HCV) genotype 1b-Con1

SMILES	EC50
COC(=O)N[C@H](C)C(=O)N1CCC[C@H]1C(=O)Nc1ccc(CN(Cc2ccc(NC(=O)[C@@H]3CCCN3C(=O)[C@@H](C)NC(=O)OC)cc2)c2ccc(F)cc2)cc1 [Example 16]	10 to 100 nM
COC(=O)N[C@H](C(=O)N1CCC[C@H]1C(=O)Nc1ccc(CN(Cc2ccc(NC(=O)[C@@H]3CCCN3C(=O)[C@@H](NC(=O)O[C@H]3CCOC3)C(C)(C)C)cc2)c2ccccc2)cc1)C(C)(C)C [Example 59, methyl (3S)-tetrahydrofuran-3-yl[(phenylimino)bis{methanediylbenzene-4,1-diylcarbamoyl(2S)pyrrolidine-2,1-diyl[(2S)-3,3-dimethyl-1-oxobutane-1,2-diyl]}]biscarbamate]	10 to 100 nM
COC(=O)N[C@H](C(=O)N1CCC[C@H]1C(=O)Nc1cc(CN(Cc2ccc(OC)c(NC(=O)[C@@H]3CCCN3C(=O)[C@@H](NC(=O)OC)C(C)(C)C)c2)c2ccc(F)cc2)ccc1OC)C(C)(C)C [Example 147, dimethyl ([(4-fluorophenyl)imino]bis{methanediyl(6-methoxybenzene-3,1-diyl)carbamoyl(2S)pyrrolidine-2,1-diyl[(2S)-3,3-dimethyl-1-oxobutane-1,2-diyl]})biscarbamate]	100 to 250 nM
COC(=O)N[C@H](C(=O)N1CCC[C@H]1/C=C/c1ccc(CN(Cc2ccc(NC(=O)[C@@H]3CCCN3C(=O)[C@@H](NC(=O)OC)C(C)(C)C)cc2)c2ccccc2)cc1)C(C)(C)C [Example 149, N-(methoxycarbonyl)-3-methyl-L-valyl-N-(4-{[{4-[(E)-2-{(2S)-1-[N-(methoxycarbonyl)-3-methyl-L-valyl]pyrrolidin-2-yl}ethenyl]benzyl}(phenyl)amino]methyl}phenyl)-L-prolinamide]	10 to 100 nM
COC(=O)N[C@H](C(=O)N1CCC[C@H]1C(=O)Nc1ccc(CN(Cc2ccc(NC(=O)[C@@H]3CCCN3C(=O)[C@@H](NC(=O)OC)C(C)C)cc2)C(C)C)cc1)C(C)C [Example 24, dimethyl ([(1-methylethyl)imino]bis{methanediylbenzene-4,1-diylcarbamoyl(2S)pyrrolidine-2,1-diyl[(2S)-3-methyl-1-oxobutane-1,2-diyl]})biscarbamate]	1 to 10 nM
CC(C)[C@@H](C(=O)N1CCC[C@H]1C(=O)Nc1ccc(CN(Cc2ccc(NC(=O)[C@@H]3CCCN3C(=O)[C@H](C(C)C)N3CCCNC3=O)cc2)c2ccccc2)cc1)N1CCCNC1=O [Example 36, (2S,2′S)-N,N′-[(phenylimino)bis(methanediylbenzene-4,1-diyl)]bis {1-[(2S)-3-methyl-2-(2-oxotetrahydropyrimidin-1(2H)-yl)butanoyl]pyrrolidine-2-carboxamide}]	1 to 10 nM
O=C(Nc1ccc(CN(Cc2ccc(NC(=O)[C@@H]3C[C@@H](F)CN3C(=O)[C@@H](c3ccccc3)N3CCCCC3)cc2)c2ccc(F)cc2)cc1)[C@@H]1C[C@@H](F)CN1C(=O)[C@@H](c1ccccc1)N1CCCCC1 [Example 102, (2S,4R,2′S,4′R)-N,N′-{[(4-fluorophenyl)imino]bis(methanediylbenzene-4,1-diyl)}bis{4-fluoro-1-[(2R)-2-phenyl-2-piperidin-1-ylacetyl]pyrrolidine-2-carboxamide}]	< 1 nM
CC[C@H](NC(=O)OC)C(=O)N1CCC[C@H]1C(=O)Nc1ccc(CN(Cc2ccc(NC(=O)[C@@H]3CCCN3C(=O)[C@H](NC(=O)OC)c3ccccc3)cc2)c2ccccc2)cc1 [Example 71, methyl {(1R)-2-[(2S)-2-{[4-({[4-({[(2S)-1-{(2S)-2-[(methoxycarbonyl)amino]butanoyl}pyrrolidin-2-yl]carbonyl}amino)benzyl](phenyl)amino}methyl)phenyl]carbamoyl}pyrrolidin-1-yl]-2-oxo-1-phenylethyl}carbamate]	< 1 nM
